Data reported in patent US7285221B2, “Composition for preventing of slime and method for preventing slime” (Kurita Water Industries, Ltd., priority 2002, dated 2007).

Key:
[1] = Storage stability of effective chlorine in the composition at 40° C. shielded from light; format: physicochemical; conditions: for concentration of effective chlorine remained: pH 14; for Fraction of remaining effective chlorine: pH of composition 14, 40° C.
Protocol: A composition composed of 40% by weight of an aqueous solution of sodium hypochlorite having a concentration of effective chlorine of 12% by weight, 8% by weight of sulfamic acid, 10% by weight of an anionic polymer or a phosphonic acid and the remaining amount of sodium hydroxide and water was prepared. pH of the composition was adjusted by changing the amount of sodium hydroxide. The prepared composition was stored in a vessel kept at the constant temperature of 40° C. and shielded from light. The concentration of the effective chlorine was measured after the composition was stored for a prescribed time.
For the measurement of the concentration of the effective chlorine, a residual chlorine meter manufactured by HACH Company and a reagent specific for this measurement were used. BELCREN (the weight-average molecular weight: 2730) manufactured by GREAT LAKES CHEMICAL Company was used as the polymaleic acid. ISOBAN (the weight-average molecular weight: 10,800) manufactured by KURARAY Co., Ltd. was used as the maleic acid-isobutylene copolymer. AQUARICK GL (the weight-average molecular weight: 10,700) manufactured by NIPPON SHOKUBAI Co., Ltd. was used as the acrylic acid-hydroxyallyloxypropanesulfonic acid copolymer. DEQUEST 2010 manufactured by MONSANTO Company was used as 1-hydroxyethylidene-1,1-diphosphonic acid. BAYHIBIT AM manufactured by BAYER Company was used as 2-phosphonobutane-1,2,4-tricarboxylic acid. BELCORE 575 manufactured by GREAT LAKES Company was used as hydroxyphosphonoacetic acid.

sludge = assay: Accumulation of sludge at the bottom of the water tank of the circulating test water apparatus; conditions: 120 hours after start of test; agent concentrations as in each example
Protocol: (§1) From a water tank 1 holding 15 liters of water, test water was passed at a rate of 10 liters/minute through a column 3 and returned to the water tank 1 using a circulating pump 2. In the column 3, a test board made of a synthetic rubber and having a surface area of 40 cm^2 was disposed to a supporting pole to measure the amount of attachment of slime.
(§2) In a water tank 4, test liquid for supplement prepared in advance was stored and transferred into the water tank 1 at a rate of 5 ml/minute using a pump for an agent 5. The test liquid for supplement was prepared by adding calcium chloride and sodium hydrogencarbonate to city water, which was dechlorinated by passing through a column of active carbon, in amounts such that the calcium hardness was 150 mg CaCO3/liter and the acid consumption (pH 4.8) was 150 mg CaCO3/liter. As the nutrient for microorganisms, 100 mg/liter of citric acid was added. To the obtained solution, a test agent was added and pH was adjusted at 8.5 by adding sodium hydroxide.
(§3) When the test was started, dirt was added into the water in the water tank 1 in an amount such that the turbidity of the water was 50. As the dirt, a concentrated liquid of reverse washing discharged from filters for industrial water in Chiba area was used. The dirt was added into the water tank 1 in an amount corresponding to a turbidity of 25 at each time when 48 hours and 96 hours had passed after the start of the test.
A valve 6 at a lower portion of the water tank 1 was opened and the water in the water tank 1 was removed 120 hours after the start of the test. The valve 6 was then closed again. Into the water tank 1, 200 ml of pure water was added and dirt accumulated at the lower portion of the water tank was suspended using a brush. The valve was opened and the formed suspension was taken out. After the dirt was separated using a centrifuge and dried to the constant weight at 105° C., the weight of the dirt was measured and the amount of accumulated sludge was obtained.
(§4) As part A of the test agent, a mixed liquid composed of 40% by weight of an aqueous solution of sodium hypochlorite having a concentration of effective chlorine of 12% by weight, 8% by weight of a sulfamic acid, 10% by weight of sodium hydroxide and 42% by weight of water was used. This mixed liquid is a solution conventionally used as the agent for preventing formation of slime. As part B of the agent, an anionic polymer or a phosphonic acid was used.

slime = assay: Attachment of slime on a synthetic rubber test board in circulating test water apparatus; conditions: 120 hours after start of test; agent concentrations as in each example
Protocol: as §1, §2, §3
(§5) The number of microorganisms in the circulating water and the turbidity of the circulating water were measured 48 hours, 72 hours and 120 hours after the start of the test. The test board of synthetic rubber attached to the column 3 was taken out 120 hours after the start of the test. After slime attached to the test board was cleaved and dried to the constant weight at 105° C., the weight of the slime was measured and the amount of the attached slime was obtained.
as §4

[2] = tested on: microorganisms in the circulating water; assay: Number of microorganisms in the circulating water
Protocol: as §1, §2, §3, §5, §4

SMILES | concentration of effective chlorine remained ([1]; after 3 month) | concentration of effective chlorine remained ([1]; after one month) | Fraction of remaining effective chlorine ([1]; after 7 days) | Fraction of remaining effective chlorine ([1]; after 30 days) | Fraction of remaining effective chlorine ([1]; after 90 days) | Accumulation of sludge amount (sludge) | Attachment of slime amount (slime) | Number of microorganisms in circulating water ([2]; after 48 hours) | Number of microorganisms in circulating water ([2]; after 72 hours) | Number of microorganisms in circulating water ([2]; after 120 hours) | number of microorganisms in the circulating water, in words ([2]; comparison in words, no time point)
OCl [sodium hypochlorite] | about 20% | about 60% | 91% | 59% | 18% |  |  |  |  |  | 
CC(O)(P(=O)(O)O)P(=O)(O)O [Comparative Example 8, 1-hydroxyethylidene-1,1-diphosphonic acid] |  |  |  |  |  | 42.8 mg | 17.3 mg/dm^2 | 720000 mL⁻¹ | 550000 mL⁻¹ | 490000 mL⁻¹ | not substantially different
O=C(O)C(O)P(=O)(O)O (stereo not shown) [Comparative Example 13, hydroxy-phosphonoacetic acid] |  |  |  |  |  | 51.1 mg | 16.5 mg/dm^2 | 660000 mL⁻¹ | 350000 mL⁻¹ | 490000 mL⁻¹ | 
O=C(O)CCC(CC(=O)O)(C(=O)O)P(=O)(O)O (stereo not shown) [Comparative Example 11, 2-phosphonobutane-1,2,4-tricarboxylic acid] |  |  |  |  |  | 48.8 mg | 16.5 mg/dm^2 | 3.8e+06 mL⁻¹ | 890000 mL⁻¹ | 760000 mL⁻¹ | 
O=C(O)CCC(CC(=O)O)(C(=O)O)P(=O)(O)O (stereo not shown) [Comparative Example 10, 2-phosphonobutane-1,2,4-tricarboxylic acid] |  |  |  |  |  | 55.5 mg | 19.2 mg/dm^2 | 670000 mL⁻¹ | 840000 mL⁻¹ | 420000 mL⁻¹ | 
CC(O)(P(=O)(O)O)P(=O)(O)O [Comparative Example 9, 1-hydroxyethylidene-1,1-diphosphonic acid] |  |  |  |  |  | 39.6 mg | 16.1 mg/dm^2 | 1.3e+06 mL⁻¹ | 490000 mL⁻¹ | 680000 mL⁻¹ | 
